Measurements taken from patent publication US20100216854A1, “1,3 AND 1,3,5 SUBSTITUTED IMIDAZOLES AS […]” (Eldrug S.A., priority 2007, published 2010).
Where “and” joins values, the source holds several entries; their conditions need not be identical. Equal entries are not always repeated. Marks after values point to notes of the source that are not given here. Values belong to the molecule of their own block, whether it stands above or below them.

How the values were obtained:
[1] = target: T1, Angiotensin II (AII) receptor (Oryctolagus cuniculus, UniProt P34976); test: Hypotensive effect as ARBs in anesthetized rabbits made hypertensive by AII infusion; format: in vivo, New Zealand White rabbits; details: AII infusion 1 μg/min; for Mean BP after 1st bolus (150 ng/kg) / Mean BP after 1st bolus (300 ng/kg): IV bolus; for Mean BP after 1st bolus (150 ng/kg) / Mean BP after 2nd bolus (300 ng/kg) / Mean BP after 1st bolus (300 ng/kg) / Mean BP after 2nd bolus (600 ng/kg): mean ± S.D.; for Mean BP after 2nd bolus (300 ng/kg): second IV bolus 15 min after 150 ng/kg; for Mean BP after 2nd bolus (600 ng/kg): second IV bolus 15 min after 300 ng/kg
T1 construct: evaluated in the anesthetized rabbit preparation made hypertensive by intravenous infusion of AII; from tissue; host or cells: whole living New Zealand White rabbit (in vivo blood pressure)
T1 sequence (P34976 1-359): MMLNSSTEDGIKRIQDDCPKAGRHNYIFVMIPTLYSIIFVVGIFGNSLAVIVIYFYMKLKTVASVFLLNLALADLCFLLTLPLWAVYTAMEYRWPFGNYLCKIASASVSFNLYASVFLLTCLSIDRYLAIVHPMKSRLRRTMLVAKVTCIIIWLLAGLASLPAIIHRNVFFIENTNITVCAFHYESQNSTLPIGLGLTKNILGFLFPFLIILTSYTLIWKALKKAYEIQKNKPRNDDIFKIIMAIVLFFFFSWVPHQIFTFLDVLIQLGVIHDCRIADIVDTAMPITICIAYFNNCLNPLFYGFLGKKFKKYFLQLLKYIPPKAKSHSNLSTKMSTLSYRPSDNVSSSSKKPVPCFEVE
Method: The hypotensive effect of these compounds as ARBs was evaluated in the anesthetized rabbit preparation made hypertensive by intravenous infusion of AII. In brief, adult normotensive male New Zealand White rabbits weighing between 2.5 and 3.5 kg were anesthetized by pentobarbitone (30 mg/kg), intubated and mechanically ventilated with 100% oxygen using a respirator for small animals (MD Industries, Mobile, Ala., USA). The tidal volume was 15 ml and the rate was adjusted to keep blood gases within normal range. Two polyethylene catheters were inserted, one in the carotid artery for continuous blood pressure monitoring via a transducer attached to a multichannel recorder (Nihon-Kohden, Model 6000, Japan) and the other one in the jugular vein for the administrations of solution made by diluting angiotensin II (ANGII) (Hypertension, CIBA) in 5% dextrose at final concentration of 5 μg/ml. Based on previous testing with this rabbit preparation submaximal angiotensin II-dependent hypertension was induced by infusing angiotensin via a syringe pump (Harvard Apparatus Pump 22, Harvard Apparatus, Natick, Mass., USA) at a constant rate of 0.2 ml/min (1 μg/min). Five minutes after the establishment of hypertension, two cumulative IV boluses of each compound were given via an ear vein 15 minutes apart. After the second bolus mean blood pressure was recorded for 30 minutes and the experiment was terminated. […]
Compounds E-P, H—P, H-Px, were also tested for the AngII receptor blocker properties, by testing their ability to block the hypertensive effect of AngII, using adult normotensive male New Zealand white rabbits. […] Values represent the mean blood pressure and are given as mean±S.D.

[2] = tested on: α2-AR; test: Testing α2-agonist properties: BP response to norepinephrine bolus before and after compound in mice; format: in vivo, Swiss Webster mice; details: for suppression of the hypertensive effect of NE: NE bolus 30 minutes after injection of compound, higher dose (300) for E-P, 100 for H-P, H-Px and UK 14304; for BP after compound (100 μg/kg): iv 100 μg/kg; for BP after compound (300 μg/kg): iv 300 μg/kg
Method: Swiss Webster mice were anesthetized with 50 mg/kg pentobarbital and two lines were inserted, one in right iliac artery and the other in right iliac vein. Next morning the arterial line was connected to a blood pressure transducer and the mean BP was recorded with a Power lab/800 data acquisition system. The venous line was used for drug infusion.

[3] = Effect on mean BP in anesthetized normotensive rabbits (agonistic effect); format: in vivo; details: cumulative IV injections of 300-900 ng/kg
[4] = tested on: rat uterus; details: rat uterus assay; cited from earlier work
[5] = anesthetized rabbits; cited from earlier work
[6] = group mean, after 100 μg/kg compound, second NE bolus 30 min after compound
[7] = group mean, BP recorded after injection
[8] = individual mice, 100 μg/kg compound
[9] = individual mice, after 100 μg/kg compound

- Mean BP after 1st bolus (150 ng/kg) [1]: 141 ± 10 mmHg
- Mean BP after 2nd bolus (300 ng/kg) [1]: 133 ± 11 mmHg
- Cumulative % drop in mean BP after the 2nd bolus ([1]; boluses 150 then 300 ng/kg): −24 ± 7%
Molecule: CCCCC1=NC2(CCCC2)C(=O)N1Cc1ccc(-c2ccccc2-c2nnn[nH]2)cc1 [Irbesartan]

- Mean BP after 1st bolus (300 ng/kg) [1]: 149 ± 7 mmHg
- Mean BP after 2nd bolus (600 ng/kg) [1]: 140 ± 3 mmHg
- Cumulative % drop in mean BP after the 2nd bolus ([1]; boluses 300 then 600 ng/kg): −15 ± 4%
Molecule: N=C(N)NCCc1cncn1Cc1ccccc1-c1nnn[nH]1 [E-P]
- suppression of the hypertensive effect of NE [2]: 45%
- Δ2 = BP changes between second bolus of Norepinephrine and the new baseline BP after injection of compound ([2]; group mean, 100 μg/kg compound): 23.0 mmHg
- Δ2 = BP changes between second bolus of Norepinephrine and the new baseline BP after injection of compound ([2]; group mean, 300 μg/kg compound): 12.3 mmHg
- BP after second bolus NE (0.12 μg/kg) [2, 6]: 153.5 mmHg
- BP after second bolus NE (0.12 μg/kg) ([2]; group mean, after 300 μg/kg compound): 124.0 mmHg
- BP after compound (100 μg/kg) [2, 7]: 130.5 mmHg
- BP after compound (300 μg/kg) ([2]; group mean): 111.7 mmHg
- Δ2 = BP changes between second bolus of Norepinephrine and the new baseline BP after injection of compound [2, 8]: 32.0 mmHg and 14.0 mmHg
- Δ2 = BP changes between second bolus of Norepinephrine and the new baseline BP after injection of compound ([2]; individual mice, 300 μg/kg compound): 8.0 mmHg and 13.0 mmHg and 16.0 mmHg
- BP after second bolus NE (0.12 μg/kg) [2, 9]: 158.0 mmHg and 149.0 mmHg
- BP after second bolus NE (0.12 μg/kg) ([2]; individual mice, after 300 μg/kg compound): 128.0 mmHg and 120.0 mmHg and 124.0 mmHg
- BP after compound (100 μg/kg) ([2]; individual mice): 126.0 mmHg and 135.0 mmHg
- BP after compound (300 μg/kg) ([2]; individual mice): 120.0 mmHg and 107.0 mmHg and 108.0 mmHg
- dose required to suppress NE effect ([2]; mice): 0.3 mg/kg
- effect on mean BP [3]: did not significantly affect mean BP

Molecule: [Sar^1, Lys^3, Glu^5]ANG II
- agonist activity [4]: possesses agonist activity
- agonist activity [5]: possesses agonist activity

- Mean BP after 1st bolus (300 ng/kg) [1]: 148 ± 23 mmHg
- Mean BP after 2nd bolus (600 ng/kg) [1]: 131 ± 15 mmHg
- Cumulative % drop in mean BP after the 2nd bolus ([1]; boluses 300 then 600 ng/kg): −24 ± 4%
Molecule: NCCc1cncn1Cc1ccccc1-c1nnn[nH]1 [H-Px]
- suppression of the hypertensive effect of NE [2]: 42%
- Δ2 = BP changes between second bolus of Norepinephrine and the new baseline BP after injection of compound ([2]; group mean, 100 μg/kg compound): 12.0 mmHg
- BP after second bolus NE (0.12 μg/kg) [2, 6]: 128.3 mmHg
- BP after compound (100 μg/kg) [2, 7]: 125.3 mmHg
- Δ2 = BP changes between second bolus of Norepinephrine and the new baseline BP after injection of compound [2, 8]: 15* mmHg and 11.0 mmHg and 13.0 mmHg
- BP after second bolus NE (0.12 μg/kg) [2, 9]: 114.0 mmHg and 136.0 mmHg and 135.0 mmHg
- BP after compound (100 μg/kg) ([2]; individual mice): 129.0 mmHg and 125.0 mmHg and 122.0 mmHg
- dose required to suppress NE effect ([2]; mice): 0.1 mg/kg
- effect on mean BP [3]: did not significantly affect mean BP

- Mean BP after 1st bolus (150 ng/kg) [1]: 148 ± 6 mmHg
- Mean BP after 2nd bolus (300 ng/kg) [1]: 136 ± 3 mmHg
- Cumulative % drop in mean BP after the 2nd bolus ([1]; boluses 150 then 300 ng/kg): −22 ± 5%
Molecule: CCCCc1nc(Cl)c(CO)n1Cc1ccc(-c2ccccc2-c2nn[nH]n2)cc1 [Losartan]

- Cumulative % drop in mean BP after the 2nd bolus ([1]; boluses 150 then 300 ng/kg): −41 ± 3%
Molecule: CCOc1nc2cccc(C(=O)O)c2n1Cc1ccc(-c2ccccc2-c2nnn[nH]2)cc1 [Candesartan]

Molecule: Brc1c(NC2=NCCN2)ccc2nccnc12 [UK 14304, reference compound]
- suppression of the hypertensive effect of NE [2]: 48%
- Δ2 = BP changes between second bolus of Norepinephrine and the new baseline BP after injection of compound ([2]; group mean, 100 μg/kg compound): 15.8 mmHg
- BP after second bolus NE (0.12 μg/kg) [2, 6]: 125.5 mmHg
- BP after compound (100 μg/kg) [2, 7]: 109.8 mmHg
- Δ2 = BP changes between second bolus of Norepinephrine and the new baseline BP after injection of compound ([2]; individual mice, 100 μg/kg compound, listed as UK): 20.0 mmHg and 12.0 mmHg and 7.0 mmHg and 24.0 mmHg
- BP after second bolus NE (0.12 μg/kg) ([2]; individual mice, after 100 μg/kg compound, listed as UK): 125.0 mmHg and 123.0 mmHg and 115.0 mmHg and 139.0 mmHg
- BP after compound (100 μg/kg) ([2]; individual mice, listed as UK): 105.0 mmHg and 111.0 mmHg and 108.0 mmHg and 115.0 mmHg
- decrease in BP ([2]; mice, 100 Ilg/kg, control α2-agonist): 15 mmHg
